Where “and” joins values, the source holds several entries; their conditions need not be identical. Equal values may be shown once. Inconclusive results and toxic doses are left out. No stated cut-off is given here; in the data, active means T/C of 150% or more; inactive means T/C below 125%.
Tested on: L1210 leukemia ip in BDF1 mice, survival T/C
Assay: NCI In Vivo Anticancer Drug Screen. Data for tumor model L1210 Leukemia (intraperitoneal) in B6D2F1 (BDF1) mice
Conditions: endpoint: mean survival time, higher = longer survival
How it was run: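 Each compound was tested against a transplantable tumor grown in mice. The endpoint was survival, with treated animals benchmarked against vehicle controls as a simple ratio.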

[1] = dose: 100.0 mg/kg/injection, schedule: Q04DX003 (ip), vehicle: Klucel (hydroxypropylcellulose) (HPC)
[2] = dose: 200.0 mg/kg/injection, schedule: Q04DX003 (ip), vehicle: Klucel (hydroxypropylcellulose) (HPC)
[3] = dose: 400.0 mg/kg/injection, schedule: Q04DX003 (ip), vehicle: Klucel (hydroxypropylcellulose) (HPC)
[4] = dose: 100.0 mg/kg/injection, schedule: Q01DX009 (ip), vehicle: saline
[5] = dose: 100.0 mg/kg/injection, schedule: Q01DX001 (ip), vehicle: saline
[6] = dose: 200.0 mg/kg/injection, schedule: Q01DX001 (ip), vehicle: saline
[7] = dose: 400.0 mg/kg/injection, schedule: Q01DX001 (ip), vehicle: saline
[8] = dose: 25.0 mg/kg/injection, schedule: Q01DX009 (ip), vehicle: saline with Tween-80
[9] = dose: 50.0 mg/kg/injection, schedule: Q01DX009 (ip), vehicle: saline with Tween-80
[10] = dose: 100.0 mg/kg/injection, schedule: Q01DX009 (ip), vehicle: saline with Tween-80
[11] = dose: 100.0 mg/kg/injection, schedule: Q04DX003 (ip), vehicle: saline with Tween-80
[12] = dose: 200.0 mg/kg/injection, schedule: Q01DX009 (ip), vehicle: saline with Tween-80
[13] = dose: 200.0 mg/kg/injection, schedule: Q04DX003 (ip), vehicle: saline with Tween-80
[14] = dose: 400.0 mg/kg/injection, schedule: Q04DX003 (ip), vehicle: saline with Tween-80
[15] = dose: 100.0 mg/kg/injection, schedule: Q01DX001 (ip), vehicle: saline with Tween-80
[16] = dose: 200.0 mg/kg/injection, schedule: Q01DX001 (ip), vehicle: carboxymethylcellulose (CMC)
[17] = dose: 400.0 mg/kg/injection, schedule: Q01DX001 (ip), vehicle: carboxymethylcellulose (CMC)

Measured: T/C

CC(C)=CCC/C(C)=C\CC1=C(O)c2ccccc2C(=O)C1=O
inactive: dose: 100.0 mg/kg/injection, schedule: Q01DX001 (ip), vehicle: water 96 % of control | dose: 100.0 mg/kg/injection, schedule: Q04DX003 (ip), vehicle: acetone 102 % of control | dose: 200.0 mg/kg/injection, schedule: Q01DX001 (ip), vehicle: water 100 % of control | dose: 200.0 mg/kg/injection, schedule: Q04DX003 (ip), vehicle: acetone 94 % of control

O=C(Nc1ccc([N+](=O)[O-])cc1Cl)Oc1ccc(F)cc1
inactive: [1] 95 % of control | [2] 96 % of control | [3] 100 % of control

Cc1ccc(COc2ccc(Cl)cc2Cn2ccnc2)cc1
inactive: [4] 102 % of control

C=C1N(c2ccc(OC)c(OC)c2)C(=O)OC12CCCCC2
inactive: dose: 25.0 mg/kg/injection, schedule: Q04DX003 (ip), vehicle: Klucel (hydroxypropylcellulose) (HPC) 93 % of control | dose: 50.0 mg/kg/injection, schedule: Q04DX003 (ip), vehicle: Klucel (hydroxypropylcellulose) (HPC) 93 % of control | [1] 102 % of control | [2] 96 % of control

COc1ccc(C=NCCc2ccc(OC)c(OC)c2)cc1OC
inactive: [4] 89 % of control | dose: 100.0 mg/kg/injection, schedule: Q04DX003 (ip), vehicle: saline 102 % of control | dose: 200.0 mg/kg/injection, schedule: Q01DX009 (ip), vehicle: saline 98 % of control | dose: 200.0 mg/kg/injection, schedule: Q04DX003 (ip), vehicle: saline 97 % of control | dose: 400.0 mg/kg/injection, schedule: Q01DX009 (ip), vehicle: saline 97 % of control | dose: 400.0 mg/kg/injection, schedule: Q04DX003 (ip), vehicle: saline 105 % of control

CC(=O)NC1C(O)CC(O)(C(=O)O)OC1C(O)C(O)CO (centres undefined)
inactive: [5] 98 % of control | [6] 100 % of control | [7] 94 % of control

COC(OC)c1cc(=O)[nH]c(NC(=O)C(Cl)Cl)n1
inactive: [8] 90 % of control | [9] 107 % of control | [10] 106 % of control | [11] 98 % of control | [12] 89 % of control | [13] 104 % of control | dose: 400.0 mg/kg/injection, schedule: Q01DX009 (ip), vehicle: saline with Tween-80 93 % of control | [14] 94 % of control

Cc1cc(C)c(CN)cc1CN
inactive: [8] 95 % of control | [9] 98 % of control | [10] 100 % of control | [11] 97 % of control

CCCCCCCCCCCC(=O)NC(=S)Nc1ccc(C)c(C)c1
inactive: dose: 50.0 mg/kg/injection, schedule: Q01DX001 (ip), vehicle: saline with Tween-80 86 % of control | [15] 91 % of control | [10] 90 % of control and 91 % of control | dose: 100.0 mg/kg/injection, schedule: Q04DX002 (ip), vehicle: saline with Tween-80 103 % of control and 91 % of control | [11] 93 % of control | [12] 103 % of control and 105 % of control | dose: 200.0 mg/kg/injection, schedule: Q04DX002 (ip), vehicle: saline with Tween-80 94 % of control and 88 % of control | [13] 90 % of control | dose: 400.0 mg/kg/injection, schedule: Q04DX002 (ip), vehicle: saline with Tween-80 94 % of control and 91 % of control | [14] 88 % of control

CC(=O)N/N=C/c1ccc2c(c1)CCC2
inactive: [11] 97 % of control | [13] 103 % of control

CCCCCCNc1c([N+](=O)[O-])cc(C)cc1[N+](=O)[O-]
inactive: dose: 100.0 mg/kg/injection, schedule: Q01DX009 (ip), vehicle: Klucel (hydroxypropylcellulose) (HPC) 100 % of control | [1] 103 % of control | dose: 200.0 mg/kg/injection, schedule: Q01DX009 (ip), vehicle: Klucel (hydroxypropylcellulose) (HPC) 111 % of control | [2] 116 % of control | dose: 400.0 mg/kg/injection, schedule: Q01DX009 (ip), vehicle: Klucel (hydroxypropylcellulose) (HPC) 96 % of control | [3] 108 % of control

COc1cc(/C=C2/N=C(C)OC2=O)cc(Cl)c1OC
inactive: [5] 87 % of control | [6] 90 % of control | [7] 87 % of control

CN(C)c1ccc(C(N)C(=O)O)cc1 (centres undefined)
inactive: dose: 50.0 mg/kg/injection, schedule: Q01DX001 (ip), vehicle: saline 101 % of control | [5] 98 % of control | [6] 95 % of control

CC(C)=CCc1ccc(O)cc1
inactive: dose: 100.0 mg/kg/injection, schedule: Q01DX009 (ip), vehicle: saline + alcohol 95 % of control | [1] 96 % of control | [2] 100 % of control | [3] 95 % of control

COC1=C2C[C@@H](C)C[C@@H](OC)[C@@H](O)[C@H](C)/C=C(\C)[C@@H](OC(N)=O)[C@H](OC)/C=C\C=C(/C)C(=O)NC(=CC1=O)C2=O
inactive: dose: 0.13 mg/kg/injection, schedule: Q01DX009 (ip), vehicle: saline with Tween-80 103 % of control | dose: 0.25 mg/kg/injection, schedule: Q01DX009 (ip), vehicle: saline with Tween-80 103 % of control | dose: 0.5 mg/kg/injection, schedule: Q01DX009 (ip), vehicle: saline with Tween-80 98 % of control | dose: 1.0 mg/kg/injection, schedule: Q01DX009 (ip), vehicle: saline with Tween-80 101 % of control | dose: 2.0 mg/kg/injection, schedule: Q01DX009 (ip), vehicle: saline with Tween-80 103 % of control | dose: 4.0 mg/kg/injection, schedule: Q01DX009 (ip), vehicle: saline with Tween-80 108 % of control

CCCCC(=O)N/N=C/c1ccccc1[N+](=O)[O-]
inactive: [16] 95 % of control | [17] 90 % of control

CC(=O)C(C)(c1ccccc1)N(Cc1ccccc1)C(=O)c1ccccc1 (centres undefined)
inactive: dose: 100.0 mg/kg/injection, schedule: Q04DX003 (ip), vehicle: other 93 % of control | dose: 200.0 mg/kg/injection, schedule: Q04DX003 (ip), vehicle: other 108 % of control | dose: 400.0 mg/kg/injection, schedule: Q04DX003 (ip), vehicle: other 92 % of control

C[N+](C)(C)C1CCCCCCC(=O)NC1 (centres undefined)
inactive: dose: 75.0 mg/kg/injection, schedule: Q01DX009 (ip), vehicle: saline 101 % of control | dose: 150.0 mg/kg/injection, schedule: Q01DX009 (ip), vehicle: saline 92 % of control | dose: 300.0 mg/kg/injection, schedule: Q01DX009 (ip), vehicle: saline 109 % of control

Cc1ccccc1Nc1n[nH]c(=O)n1-c1ccccc1C
inactive: dose: 100.0 mg/kg/injection, schedule: Q04DX003 (ip), vehicle: carboxymethylcellulose (CMC) 98 % of control | dose: 200.0 mg/kg/injection, schedule: Q04DX003 (ip), vehicle: carboxymethylcellulose (CMC) 90 % of control | dose: 400.0 mg/kg/injection, schedule: Q04DX003 (ip), vehicle: carboxymethylcellulose (CMC) 106 % of control

Oc1cccc(C(c2ccccc2)c2ccccc2)c1
inactive: [15] 94 % of control | dose: 200.0 mg/kg/injection, schedule: Q01DX001 (ip), vehicle: saline with Tween-80 94 % of control

CC(C)O[Si](C)(C)CCl
inactive: dose: 50.0 mg/kg/injection, schedule: Q01DX001 (ip), vehicle: carboxymethylcellulose (CMC) 98 % of control | dose: 100.0 mg/kg/injection, schedule: Q01DX001 (ip), vehicle: carboxymethylcellulose (CMC) 86 % of control | [16] 90 % of control | [17] 92 % of control

Reference: PubChem BioAssay AID248 (DTP/NCI, 2004)
